Like-named read-outs stand apart in the source and are kept apart here. No end group written: not given here.
What was measured:
Test in all cases: biochemical
Assay type in all cases: binding
HLA-DR DRB1*0101 (DR1) = HLA-DR DRB1*0101 (DR1) (Homo sapiens, UniProt P01903+P01911, A100R/D57E/F55L/F60I/F76Y/I96L/L162R/M171V/P40L/Q125E/R42F/V115G/Y59C)
HLA-DR DRB1*0301 (DR3) = HLA-DR DRB1*0301 (DR3) (Homo sapiens, UniProt P01903+P01911, A100K/A102G/A103R/A169T/F55Y/I96L/K41T/L162R/M171V/P40S/Q125H/Q178H/Q39Y/R42S/S66N/T106N/T262R/W38E/Y61H)
HLA-DR DRB1*0401 (DR4) = HLA-DR DRB1*0401 (DR4) (Homo sapiens, UniProt P01903+P01911, A100K/A169T/F76Y/I96L/K127E/L162R/M171V/N62H/P40V/Q125Y/R42H/S133A/S149N/S66Y/V115G/V209L/W38E)
HLA-DR DRB1*0405 (DR4) = HLA-DR DRB1*0405 (DR4) (Homo sapiens, UniProt P01903+P01911, A100R/A169T/D86S/F76Y/I96L/K127E/L162R/M171V/N62H/P40V/Q125Y/R42H/S133A/S149N/S66Y/V115G/V209L/W38E)
HLA-DR DRB1*0701 (DR7) = HLA-DR DRB1*0701 (DR7) (Homo sapiens, UniProt P01903+P01911, A100R/A102G/A103Q/D57E/D86V/E43K/F76Y/K127E/L162R/M171V/P40G/Q125H/Q99D/R33Q/R42Y/R54Q/S133A/S66F/T210M/V115G/Y107V/Y59L/Y89S)
HLA-DR DRB1*0802 (DR8) = HLA-DR DRB1*0802 (DR8) (Homo sapiens, UniProt P01903+P01911, A100R/A103L/A169T/F76Y/H45Y/I96F/K41T/L162R/M171V/P40S/Q125H/Q178H/Q39Y/Q99D/R218S/R42G/S66Y/V115G/W38E)
HLA-DR DRB1*0901 (DR9) = HLA-DR DRB1*0901 (DR9) (Homo sapiens, UniProt P01903+P01911, A100R/A103E/D57H/D86V/F55Y/F60I/F76Y/I96F/K127E/L162R/M171V/P40D/Q125H/Q99R/R33Q/R42F/S133A/S66N/T210M/V115G/W38K/Y107V/Y59G/Y89S)
HLA-DR DRB1*1302 (DR13) = HLA-DR DRB1*1302 (DR13) (Homo sapiens, UniProt P01903+P01911, A100E/A169T/K41T/L162R/M171V/P40S/Q125H/Q178H/Q39Y/Q99D/R42S/S66N/T262R/V115G/W38E/Y61H)
HLA-DR DRB1*1501 (DR15) = HLA-DR DRB1*1501 (DR15) (Homo sapiens, UniProt P01903+P01911)
HLA-DR DRB1*1101 (DR11) = HLA-DR DRB1*1101 (DR11) (Homo sapiens, UniProt P01903+P01911, A100R/A169T/A87E/I96F/K41T/L162R/M171V/P40S/Q125H/Q178H/Q39Y/Q99D/R42S/S66Y/T262R/V115G/W38E)
HLA-DR DRB4*0101 (DR53) = HLA-DR DRB4*0101 (DR53) (Homo sapiens, UniProt P01903+P13762, G164S)
HLA-DR DRB5*0101 (DR51) = HLA-DR DRB5*0101 (DR51) (Homo sapiens, UniProt P01903+Q30154)
HLA-DR DRB3*0101 (DR52) = HLA-DR DRB3*0101 (DR52) (Homo sapiens, UniProt P01903+P79483)

Chain of HLA-DR DRB1*1302 (DR13) (P01903 26-254 limits assumed, other chains not shown): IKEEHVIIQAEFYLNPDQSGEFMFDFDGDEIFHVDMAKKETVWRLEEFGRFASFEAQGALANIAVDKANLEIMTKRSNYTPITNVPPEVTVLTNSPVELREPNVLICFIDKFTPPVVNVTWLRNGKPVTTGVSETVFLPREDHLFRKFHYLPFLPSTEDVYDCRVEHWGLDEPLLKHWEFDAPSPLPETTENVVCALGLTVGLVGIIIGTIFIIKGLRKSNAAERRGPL
Chain of HLA-DR DRB1*0301 (DR3) (P01903 26-254 limits assumed, other chains not shown): as above
Chain of HLA-DR DRB1*1101 (DR11) (P01903 26-254 limits assumed, other chains not shown): as above

## FLRIVQTRSVEGSTGF
HLA-DR DRB1*0101 (DR1); DRB1 *0101
  IC50: 6.4 nM
HLA-DR DRB1*0301 (DR3)
  IC50: 3940 nM
HLA-DR DRB1*0401 (DR4); DRB1 *0401
  IC50: 11 nM
HLA-DR DRB1*0405 (DR4); DRB1 *0405
  IC50: 99 nM
HLA-DR DRB1*0701 (DR7); DRB1 *0701
  IC50: 9.8 nM
HLA-DR DRB1*0802 (DR8)
  IC50: 445 nM
HLA-DR DRB1*0901 (DR9); DRB1 *0901
  IC50: 778 nM
HLA-DR DRB1*1302 (DR13); DRBI *1302
  IC50: 1.5 nM
HLA-DR DRB1*1501 (DR15); DRBI *1501
  IC50: 9.8 nM

## FPDWQNYTPGPGTRF
HLA-DR DRB1*0301 (DR3)
  IC50: > 224000 nM
HLA-DR DRB1*0401 (DR4); DRB1 *0401
  IC50: 23400 nM
HLA-DR DRB1*0405 (DR4); DRB1 *0405
  IC50: > 10100 nM
HLA-DR DRB1*0701 (DR7); DRB1 *0701
  IC50: 59600 nM
HLA-DR DRB1*0802 (DR8)
  IC50: 592 nM
HLA-DR DRB1*0901 (DR9); DRB1 *0901
  IC50: 3010 nM
HLA-DR DRB1*1101 (DR11); DRB1 *1101
  IC50: > 51300 nM
HLA-DR DRB1*1302 (DR13); DRBI *1302
  IC50: > 12000 nM
HLA-DR DRB1*1501 (DR15); DRBI *1501
  IC50: 35100 nM
HLA-DR DRB4*0101 (DR53); DRB4 *0101
  IC50: 33900 nM
HLA-DR DRB5*0101 (DR51); DRB5 *0101
  IC50: > 20500 nM

## GAPLGAAARALAHGV
HLA-DR DRB1*0101 (DR1)
  IC50: 226 nM
HLA-DR DRB1*0405 (DR4)
  IC50: > 13000 nM
HLA-DR DRB1*0701 (DR7)
  IC50: 6490 nM
HLA-DR DRB1*1101 (DR11)
  IC50: 36 nM
HLA-DR DRB1*1302 (DR13)
  IC50: 15100 nM
HLA-DR DRB1*1501 (DR15)
  IC50: 3920 nM
HLA-DR DRB3*0101 (DR52)
  IC50: > 71000 nM
HLA-DR DRB4*0101 (DR53)
  IC50: 16500 nM
HLA-DR DRB5*0101 (DR51)
  IC50: 4500 nM

## GAPLGGAARALAHGV
HLA-DR DRB1*0101 (DR1); DRB1 *0101
  IC50: 690 nM
HLA-DR DRB1*0405 (DR4); DRB1 *0405
  IC50: > 13000 nM
HLA-DR DRB1*1101 (DR11); DRB1 *1101
  IC50: 24 nM
HLA-DR DRB1*1302 (DR13); DRBI *1302
  IC50: 8740 nM
HLA-DR DRB1*1501 (DR15); DRBI *1501
  IC50: 1620 nM
HLA-DR DRB3*0101 (DR52)
  IC50: > 71000 nM
HLA-DR DRB5*0101 (DR51); DRB5 *0101
  IC50: 12000 nM

## QLCFLKKGLGISYGR
HLA-DR DRB1*0301 (DR3)
  IC50: 158000 nM
HLA-DR DRB1*0401 (DR4)
  IC50: 4440 nM
HLA-DR DRB1*0405 (DR4)
  IC50: 443 nM
HLA-DR DRB1*0701 (DR7)
  IC50: 3630 nM
HLA-DR DRB1*0802 (DR8)
  IC50: 40 nM
HLA-DR DRB1*0901 (DR9)
  IC50: 200 nM
HLA-DR DRB1*1101 (DR11)
  IC50: 9.5 nM
HLA-DR DRB1*1302 (DR13)
  IC50: 88 nM

## TLERPKTLSPQKNGV
HLA-DR DRB1*0301 (DR3); read-out: DRB1 *0301
  IC50: 134000 nM
HLA-DR DRB1*0401 (DR4); read-out: DRB1 *0401
  IC50: > 22500 nM
HLA-DR DRB1*0405 (DR4); read-out: DRB1 *0405
  IC50: > 28600 nM
HLA-DR DRB1*0701 (DR7); read-out: DRB1 *0701
  IC50: 26000 nM
HLA-DR DRB1*0802 (DR8); read-out: DRB1 *0802
  IC50: > 75400 nM
HLA-DR DRB1*0901 (DR9); read-out: DRB1 *0901
  IC50: > 300000 nM

## VASLLTTAEVVVTE
HLA-DR DRB1*0301 (DR3); read-out: DRB1 *0301
  IC50: 136000 nM
HLA-DR DRB1*0401 (DR4); read-out: DRB1 *0401
  IC50: 7430 nM
HLA-DR DRB1*0405 (DR4); read-out: DRB1 *0405
  IC50: 6520 nM
HLA-DR DRB1*0701 (DR7); read-out: DRB1 *0701
  IC50: 369 nM
HLA-DR DRB1*0802 (DR8); read-out: DRB1 *0802
  IC50: > 118000 nM
HLA-DR DRB1*0901 (DR9); read-out: DRB1 *0901
  IC50: 1960 nM

## VNFYAWKRMEVGQQA
HLA-DR DRB1*0101 (DR1); DRB1 *0101
  IC50: 193 nM
HLA-DR DRB1*0301 (DR3)
  IC50: 2870 nM
HLA-DR DRB1*0401 (DR4); DRB1 *0401
  IC50: 10 nM
HLA-DR DRB1*0405 (DR4); DRB1 *0405
  IC50: 15 nM
HLA-DR DRB1*0701 (DR7); DRB1 *0701
  IC50: 40200 nM
HLA-DR DRB1*0802 (DR8)
  IC50: 35 nM
HLA-DR DRB1*0901 (DR9); DRB1 *0901
  IC50: 1240 nM
HLA-DR DRB1*1101 (DR11); DRB1 *1101
  IC50: 50 nM
HLA-DR DRB1*1302 (DR13); DRBI *1302
  IC50: 14800 nM
HLA-DR DRB4*0101 (DR53); DRB4 *0101
  IC50: 1490 nM

## VRVEILRYFYVINRL
HLA-DR DRB1*0101 (DR1); read-out: DRB1 *0101
  IC50: 1.8 nM
HLA-DR DRB1*0401 (DR4); read-out: DRB1 *0401
  IC50: 140 nM
HLA-DR DRB1*0405 (DR4); read-out: DRB1 *0405
  IC50: 18 nM
HLA-DR DRB1*0701 (DR7); read-out: DRB1 *0701
  IC50: 14 nM
HLA-DR DRB1*0802 (DR8); read-out: DRB1 *0802
  IC50: 3580 nM
HLA-DR DRB1*0901 (DR9); read-out: DRB1 *0901
  IC50: 485 nM

## YLVTGERGFFYTKYT
HLA-DR DRB1*0101 (DR1); read-out: DRB1 *0101
  IC50: 1150 nM
HLA-DR DRB1*0301 (DR3); read-out: DRB1 *0301
  IC50: 4800 nM
HLA-DR DRB1*0401 (DR4); read-out: DRB1 *0401
  IC50: > 20500 nM
HLA-DR DRB1*0405 (DR4); read-out: DRB1 *0405
  IC50: > 30100 nM
HLA-DR DRB1*0701 (DR7); read-out: DRB1 *0701
  IC50: 78 nM
HLA-DR DRB1*0802 (DR8); read-out: DRB1 *0802
  IC50: 4300 nM
HLA-DR DRB1*0901 (DR9); read-out: DRB1 *0901
  IC50: 195000 nM

From US20060079453A1, “Hla binding peptides and their uses” (priority 2002, published 2006)
